Experimental data published in US20140249147A1, “Substituted Bicyclic Aza-Heterocycles and Analogues as Sirtuin Modulators” (GlaxoSmithKline, LLC, priority 2011, published 2014).

Experiments:
[1] = target: T1, SIRT1 (Homo sapiens, UniProt Q96EB6); assay: TAMRA based mass spectrometry assay of SIRT1 activation; assay type: biochemical; conditions: TAMRA peptide substrate; for Emax: 25 min, percent maximum fold activation relative to control (100%), read-out: TAMRA % Fold Act; for TAMRA EC1.5 (μM): concentration giving 150% activation of SIRT1
T1 sequence (Q96EB6 1-747): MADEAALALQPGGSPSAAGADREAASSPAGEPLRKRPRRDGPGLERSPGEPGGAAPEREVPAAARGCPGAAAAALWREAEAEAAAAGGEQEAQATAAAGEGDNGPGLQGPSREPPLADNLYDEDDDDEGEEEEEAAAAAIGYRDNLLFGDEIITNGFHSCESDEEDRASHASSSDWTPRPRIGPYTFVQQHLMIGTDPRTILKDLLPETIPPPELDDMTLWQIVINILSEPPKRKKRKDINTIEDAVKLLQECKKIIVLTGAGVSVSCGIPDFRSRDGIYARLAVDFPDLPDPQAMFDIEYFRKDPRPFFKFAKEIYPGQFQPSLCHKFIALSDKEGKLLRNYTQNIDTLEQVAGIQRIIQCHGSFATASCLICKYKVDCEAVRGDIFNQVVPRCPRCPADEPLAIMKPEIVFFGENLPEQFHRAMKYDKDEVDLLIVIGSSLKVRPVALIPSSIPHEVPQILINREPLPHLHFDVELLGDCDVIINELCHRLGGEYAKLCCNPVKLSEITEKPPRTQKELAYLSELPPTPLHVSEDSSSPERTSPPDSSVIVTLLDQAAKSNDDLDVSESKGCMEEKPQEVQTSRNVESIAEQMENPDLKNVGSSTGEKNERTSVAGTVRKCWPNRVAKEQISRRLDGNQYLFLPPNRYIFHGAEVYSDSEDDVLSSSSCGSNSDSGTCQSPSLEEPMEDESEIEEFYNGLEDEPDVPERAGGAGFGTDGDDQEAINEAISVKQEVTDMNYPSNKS
From the text: (§1) Mass spectrometry based assays were used to identify modulators of SIRT1 activity. The TAMRA based assay utilized a peptide having 20 amino acid residues as follows: Ac-EE-K(biotin)-GQSTSSHSK(Ac)NleSTEG-K(5TMR)-EE-NH2 (SEQ ID NO: 1), wherein K(Ac) is an acetylated lysine residue and Nle is a norleucine. The peptide was labeled with the fluorophore 5TMR (excitation 540 nm/emission 580 nm) at the C-terminus. The sequence of the peptide substrate was based on p53 with several modifications. In addition, the methionine residue naturally present in the sequence was replaced with the norleucine because the methionine may be susceptible to oxidation during synthesis and purification. The Trp based assay utilized a peptide having an amino acid residues as follows: Ac—R—H—K—K(Ac)—W—NH2 (SEQ ID NO: 2).
The TAMRA based mass spectrometry assay was conducted as follows: 0.5 μM peptide substrate and 120 μM βNAD^+ was incubated with 10 nM SIRT1 for 25 minutes at 25° C. in a reaction buffer (50 mM Tris-acetate pH 8, 137 mM NaCl, 2.7 mM KCl, 1 mM MgCl2, 5 mM DTT, 0.05% BSA). The SIRT1 protein was obtained by cloning the SirT1 gene into a T7-promoter containing vector, which was then transformed and expressed in BL21(DE3) bacterial cells. Test compound was added at varying concentrations to this reaction mixture and the resulting reactions were monitored. After the 25 minute incubation with SIRT1, 10 μL of 10% formic acid was added to stop the reaction. The resulting reactions were sealed and frozen for later mass spec analysis. Determination of the amount of deacetylated substrate peptide formed (or, alternatively, the amount of O-acetyl-ADP-ribose (OAADPR) generated) by the sirtuin-mediated NAD-dependent deacetylation reaction allowed for the precise measurement of relative SIRT1 activity in the presence of varying concentrations of the test compound versus control reactions lacking the test compound.
(§2) A control for inhibition of sirtuin activity was conducted by adding 1 μL of 500 mM nicotinamide as a negative control at the start of the reaction (e.g., permits determination of maximum sirtuin inhibition). A control for activation of sirtuin activity was conducted using 10 nM of sirtuin protein, with 1 μL of DMSO in place of compound, to determine the amount of deacetylation of the substrate at a given time point within the linear range of the assay. This time point was the same as that used for test compounds and, within the linear range, the endpoint represents a change in velocity. For the above assay, SIRT1 protein was expressed and purified as follows. The SirT1 gene was cloned into a T7-promoter containing vector and transformed into BL21(DE3). The protein was expressed by induction with 1 mM IPTG as an N-terminal His-tag fusion protein at 18° C. overnight and harvested at 30,000×g. Cells were lysed with lysozyme in lysis buffer (50 mM Tris-HCl, 2 mM Tris[2-carboxyethyl]phosphine (TCEP), 10 μM ZnCl2, 200 mM NaCl) and further treated with sonication for 10 min for complete lysis. The protein was purified over a Ni-NTA column (Amersham) and fractions containing pure protein were pooled, concentrated and run over a sizing column (Sephadex S200 26/60 global). The peak containing soluble protein was collected and run on an Ion-exchange column (MonoQ). Gradient elution (200 mM-500 mM NaCl) yielded pure protein. This protein was concentrated and dialyzed against dialysis buffer (20 mM Tris-HCl, 2 mM TCEP) overnight. The protein was aliquoted and frozen at −80° C. until further use.
Sirtuin-modulating compounds of Formula (I) that activated SIRT1 were identified using the assay described above and are shown below in Table 1. The EC1.5 values represent the concentration of test compounds that result in 150% activation of SIRT1. The EC1.5 values for the activating compounds of Formula (I) are represented by A (EC1.5<1 μM), B (EC1.5 1-25 μM), C (EC1.5>25 μM). […]

[2] = target: T1, SIRT1; assay: Trp mass spectrometry assay of SIRT1 activation; assay type: biochemical; conditions: Trp peptide substrate; for TYP EC1.5 (μM): concentration giving 150% activation of SIRT1; for TYP % Fold Act: percent maximum fold activation relative to control (100%)
From the text: as §1
The Trp mass spectrometry assay was conducted as follows. 0.5 μM peptide substrate and 120 μM βNAD^+ were incubated with 10 nM SIRT1 for 25 minutes at 25° C. in a reaction buffer (50 mM HEPES pH 7.5, […], 1 mM DTT, 0.05% BSA). The SIRT1 protein was obtained by cloning the SirT 1 gene into a T7-promoter containing vector, which was then expressed in BL21(DE3) bacterial cells and purified as described in further detail below. Test compound was added at varying concentrations to this reaction mixture and the resulting reactions were monitored. After the 25 minute incubation with SIRT1, 10 μL of 10% formic acid was added to stop the reaction. The resulting reactions were sealed and frozen for later mass spec analysis. The relative SIRT1 activity was then determined by measuring the amount of O-acetyl-ADP-ribose (OAADPR) formed (or, alternatively, the amount of deacetylated Trp peptide generated) by the NAD-dependent sirtuin deacetylation reaction in the presence of varying concentrations of the test compound versus control reactions lacking the test compound. The degree to which the test agent activated deacetylation by SIRT1 was expressed as EC1.5 (i.e., the concentration of compound required to increase SIRT1 activity by 50% over the control lacking test compound), and Percent Maximum Activation (i.e., the maximum activity relative to control (100%) obtained for the test compound).
as §2
Sirtuin-modulating compounds of Formula (I) that activated SIRT1 were identified using the assay described above and are shown below in Table 1. […]

| Emax [1] [%] | TAMRA EC1.5 (μM) [1] | TYP EC1.5 (μM) [2] | TYP % Fold Act [2] | Compound |
| --- | --- | --- | --- | --- |
| < 350 | C (EC1.5>25 μM) | – | – | Cn1ccc(C(=O)Nc2ccc3ncc(-c4cccc(F)c4)n3n2)n1 [Compound 43] |
| < 350 | C (EC1.5>25 μM) | C (EC1.5>25 μM) | B (Fold Activation <350%) | O=C(Nc1ccc2ncc(-c3ccccc3F)n2n1)c1ccccn1 [Compound 23] |
| < 350 | A (EC1.5<1 μM) | – | – | O=C(Nc1ccc2ncc(-c3cccc(Cl)c3)n2n1)c1cnccn1 [Compound 34] |
| < 350 | C (EC1.5>25 μM) | – | – | O=C(Nc1ccc2ncc(-c3ccccc3Cl)n2n1)c1ccccn1 [Compound 41] |
| < 350 | B (EC1.5 1-25 μM) | – | – | O=C(Nc1cccc(N2CCOCC2)n1)c1ccc2ncc(-c3cccc(Cl)c3)n2n1 [Compound 46] |
| < 350 | B (EC1.5 1-25 μM) | – | – | O=C(Nc1ccc2ncc(-c3ccccc3F)n2n1)c1ncccn1 [Compound 25] |
| < 350 | C (EC1.5>25 μM) | – | – | Cn1ccc(C(=O)Nc2ccc3ncc(-c4ccccc4Cl)n3n2)n1 [Compound 45] |
| < 350 | B (EC1.5 1-25 μM) | – | – | O=C(Nc1cccc(C(F)(F)F)n1)c1ccc2ncc(-c3ccccc3F)n2n1 [Compound 9] |
| ≥ 350 | A (EC1.5<1 μM) | – | – | O=C(Nc1ccnc(C2CCOCC2)c1)c1ccc2ncc(-c3cccc(C(F)(F)F)c3)n2n1 [Compound 47] |
| < 350 | B (EC1.5 1-25 μM) | – | – | O=C(Nc1ccc2ncc(-c3cccc(F)c3)n2n1)c1cnccn1 [Compound 20] |
| < 350 | B (EC1.5 1-25 μM) | – | – | O=C(Nc1ccc2ncc(-c3cccc(Cl)c3)n2n1)c1ncccn1 [Compound 37] |
| < 350 | C (EC1.5>25 μM) | – | – | O=C(Nc1ccnc(C(F)(F)F)c1)c1ccc2ncc(-c3cccc(F)c3)n2n1 [Compound 50] |
| < 350 | B (EC1.5 1-25 μM) | – | – | O=C(Nc1ccnc(C(F)(F)F)c1)c1ccc2ncc(-c3ccccc3Cl)n2n1 [Compound 29] |
| ≥ 350 | A (EC1.5<1 μM) | – | – | O=C(Nc1ccc2ncc(-c3ccccc3Cl)n2n1)c1ncccn1 [Compound 33] |
| < 350 | C (EC1.5>25 μM) | – | – | O=C(Nc1cccc(N2CCOCC2)n1)c1ccc2ncc(-c3ccccc3F)n2n1 [Compound 32] |
| < 350 | – | – | – | O=C(Nc1cccc(C(F)(F)F)n1)c1ccc2nnc(-c3cccc(F)c3)n2n1 [Compound 7] |
| – | C (EC1.5>25 μM) | – | – | O=C(Nc1ccccn1)c1ccc2nnc(-c3cccc(C(F)(F)F)c3)n2n1 [Compound 3] |

| Emax [1] [%] | TAMRA EC1.5 (μM) [1] | TYP EC1.5 (μM) [2] | TYP % Fold Act [2] | Compound |
| --- | --- | --- | --- | --- |
| < 350 | A (EC1.5<1 μM) | – | – | Cn1ccc(C(=O)Nc2ccc3ncc(-c4cccc(Cl)c4)n3n2)n1 [Compound 35] |
| < 350 | A (EC1.5<1 μM) | – | – | Cn1ccc(C(=O)Nc2ccc3ncc(-c4ccccc4F)n3n2)n1 [Compound 36] |
| < 350 | B (EC1.5 1-25 μM) | – | – | O=C(Nc1ccc2ncc(-c3cccc(Cl)c3)n2n1)c1nccs1 [Compound 27] |
| < 350 | B (EC1.5 1-25 μM) | – | – | O=C(Nc1ccc2ncc(-c3cccc(F)c3)n2n1)c1nccs1 [Compound 17] |
| – | – | C (EC1.5>25 μM) | B (Fold Activation <350%) | O=C(Nc1ccc2ncc(-c3cccc(C(F)(F)F)c3)n2n1)c1ncccn1 [Compound 39] |
| < 350 | C (EC1.5>25 μM) | – | – | O=C(Nc1nccs1)c1ccc2nnc(-c3cccc(C(F)(F)F)c3)n2n1 [Compound 49] |
| < 350 | C (EC1.5>25 μM) | – | – | CS(=O)(=O)c1cccc(-c2nnc3ccc(C(=O)Nc4nccs4)nn23)c1 [Compound 42] |
| < 350 | B (EC1.5 1-25 μM) | – | – | O=C(Nc1ccnc(C(F)(F)F)c1)c1ccc2ncc(-c3ccccc3F)n2n1 [Compound 12] |
| < 350 | B (EC1.5 1-25 μM) | – | – | O=C(Nc1ccc2ncc(-c3cccc(Cl)c3)n2n1)c1ccccn1 [Compound 30] |
| < 350 | C (EC1.5>25 μM) | – | – | Cn1ccc(C(=O)Nc2ccc3ncc(-c4cccc(C(F)(F)F)c4)n3n2)n1 [Compound 40] |
| < 350 | B (EC1.5 1-25 μM) | – | – | O=C(Nc1ccc(F)cn1)c1ccc2ncc(-c3cccc(C(F)(F)F)c3)n2n1 [Compound 11] |
| < 350 | C (EC1.5>25 μM) | – | – | O=C(Nc1ccc2ncc(-c3ccccc3F)n2n1)c1cnccn1 [Compound 13] |
| < 350 | B (EC1.5 1-25 μM) | – | – | O=C(Nc1ccc2ncc(-c3ccccc3Cl)n2n1)c1nccs1 [Compound 24] |
| < 350 | B (EC1.5 1-25 μM) | – | – | O=C(Nc1ccc2ncc(-c3cccc(F)c3)n2n1)c1ccccn1 [Compound 28] |
| < 350 | B (EC1.5 1-25 μM) | – | – | O=C(Nc1ccc2ncc(-c3cccc(C(F)(F)F)c3)n2n1)c1ccccn1 [Compound 31] |
| < 350 | C (EC1.5>25 μM) | – | – | O=C(Nc1ccccn1)c1ccc2nnc(-c3cccc(OC(F)(F)F)c3)n2n1 [Compound 2] |
